Experimental data as given in patent US4487924A, “2'-N-β-Lysyl) aminoglycosides” (Kowa Company, Ltd., priority 1982, dated 1984).
Values after ≈ are worked out from the molar mass of the structure shown. Read-outs that look alike come from different tables or passages of the source.

How the values were obtained:
Experiment in all cases: Antibiotic activity (MIC), Table 1
Assay type in all cases: cell-based
S. aureus 209P JC-1 = test system: S. aureus 209P JC-1
S. faecalis Imanari = test system: S. faecalis Imanari
B. subtilis ATCC 6633 = test system: B. subtilis ATCC 6633
E. coli NIHJ JC-2 = test system: E. coli NIHJ JC-2
K. pneumoniae PCI 602 = test system: K. pneumoniae PCI 602
E. cloacae IID 977 = test system: E. cloacae IID 977
S. marcescens NHL = test system: S. marcescens NHL
P. inconstans 93 = test system: P. inconstans 93
P. vulgaris IID 874 = test system: P. vulgaris IID 874
P. aeruginosa NCTC 10490 = test system: P. aeruginosa NCTC 10490
P. cepacia 11D 1340 = test system: P. cepacia 11D 1340
P. maltophilia IID 1275 = test system: P. maltophilia IID 1275
P. putida IID 5121 = test system: P. putida IID 5121
E. coli ML 1410 = test system: E. coli ML 1410
[1] = test system: E. coli ML 1410 R81 (APH(3')-I)
[2] = test system: P. aeruginosa TI 13 (APH(3')-I)
[3] = test system: E. coli ML 1410 R83 (APH(3')-II)
[4] = test system: P. aerugionosa TK-157 (APH(3')-II)
[5] = test system: E. coli ML 1410 R102 (AAD(2"))
[6] = test system: K. pneumoniae 4687 (AAD(2"))
[7] = test system: E. coli ML 1410 R82 (AAD(3"))
[8] = test system: P. aeruginosa GN315 (AAC(6')-IV)
E. coli JR 88 (AAC(3)-I) = test system: E. coli JR 88 (AAC(3)-I)
[9] = test system: P. aeruginosa 99 (AAC(3)-I)
E. coli R176 (AAC(3)-II) = test system: E. coli R176 (AAC(3)-II)
[10] = test system: P. aeruginosa RST-1 (AAC(3)-III)
[11] = test system: P. inconstans GN1554 (AAC(2'))
[12] = Bacillus subtilis, ATCC6633, B. subtilis ATCC 6633, read-out: MIC
[13] = Burkholderia cepacia, 11D1340, read-out: MIC
[14] = Pseudomonas aeruginosa, GN315, P. aeruginosa GN315 (AAC(6')-IV), read-out: MIC
[15] = Escherichia coli, read-out: MIC
[16] = Pseudomonas aeruginosa, read-out: MIC

CNC1C(OC)CC(N)C(OC2OC(C(C)N)CCC2N)C1O (stereo not drawn) [KA-6606II, reference compound]
MIC (S. aureus 209P JC-1): 25 µg/mL (≈ 75.2 µM) | MIC (S. faecalis Imanari): 100 µg/mL (≈ 301 µM) | MIC (B. subtilis ATCC 6633; B. subtilis ATCC 6633): 6.25 µg/mL (≈ 18.8 µM) | MIC (E. coli NIHJ JC-2; E. coli NIHJ JC-2): 50 µg/mL (≈ 150 µM) | MIC (K. pneumoniae PCI 602; K. pneumoniae PCI 602): > 100 µg/mL | MIC (E. cloacae IID 977; E. cloacae IID 977): > 100 µg/mL | MIC (S. marcescens NHL): 100 µg/mL (≈ 301 µM) | MIC (P. inconstans 93; P. inconstans 93): > 100 µg/mL | MIC (P. vulgaris IID 874; P. vulgaris IID 874): 100 µg/mL (≈ 301 µM) | MIC (P. aeruginosa NCTC 10490; P. aeruginosa NCTC 10490): > 100 µg/mL | MIC (P. cepacia 11D 1340): > 100 µg/mL | MIC (P. maltophilia IID 1275; P. maltophilia IID 1275): > 100 µg/mL | MIC (P. putida IID 5121; P. putida IID 5121): > 100 µg/mL | MIC (E. coli ML 1410; E. coli ML 1410): > 100 µg/mL | MIC [1]: > 100 µg/mL | MIC [2]: > 100 µg/mL | MIC [3]: > 100 µg/mL | MIC [4]: > 100 µg/mL | MIC [5]: > 100 µg/mL | MIC [6]: > 100 µg/mL | MIC [7]: > 100 µg/mL | MIC ([8]; P. aeruginosa GN315 (AAC(6')-IV)): > 100 µg/mL | MIC (E. coli JR 88 (AAC(3)-I)): > 100 µg/mL | MIC [9]: > 100 µg/mL | MIC (E. coli R176 (AAC(3)-II)): > 100 µg/mL | MIC [10]: > 100 µg/mL | MIC ([11]; P. inconstans GN1554 (AAC(2'))): > 100 µg/mL

CNC1C(OC)CC(N)C(OC2OC(C(C)N)CCC2N)C1O (stereo not drawn) [KA-6606VIII, reference compound]
MIC (S. aureus 209P JC-1): 0.78 µg/mL (≈ 2.35 µM) | MIC (S. faecalis Imanari): 3.13 µg/mL (≈ 9.42 µM) | MIC (B. subtilis ATCC 6633; [12]): 3.13 µg/mL (≈ 9.42 µM) | MIC (E. coli NIHJ JC-2; E. coli NIHJ JC-2): 3.13 µg/mL (≈ 9.42 µM) | MIC (K. pneumoniae PCI 602; K. pneumoniae PCI 602): 0.78 µg/mL (≈ 2.35 µM) | MIC (E. cloacae IID 977; E. cloacae IID 977): 12.5 µg/mL (≈ 37.6 µM) | MIC (S. marcescens NHL): 1.56 µg/mL (≈ 4.69 µM) | MIC (P. inconstans 93; P. inconstans 93): 1.56 µg/mL (≈ 4.69 µM) | MIC (P. vulgaris IID 874; P. vulgaris IID 874): 12.5 µg/mL (≈ 37.6 µM) | MIC (P. aeruginosa NCTC 10490; P. aeruginosa NCTC 10490): 12.5 µg/mL (≈ 37.6 µM) | MIC (P. cepacia 11D 1340; [13]): > 100 µg/mL | MIC (P. maltophilia IID 1275; P. maltophilia IID 1275): 1.56 µg/mL (≈ 4.69 µM) | MIC (P. putida IID 5121; P. putida IID 5121): 12.5 µg/mL (≈ 37.6 µM) | MIC (E. coli ML 1410; E. coli ML 1410): 3.13 µg/mL (≈ 9.42 µM) | MIC [2]: 25 µg/mL (≈ 75.2 µM) | MIC [4]: 25 µg/mL (≈ 75.2 µM) | MIC [5]: 0.78 µg/mL (≈ 2.35 µM) | MIC [6]: 6.25 µg/mL (≈ 18.8 µM) | MIC [8, 14]: 100 µg/mL (≈ 301 µM) | MIC (E. coli JR 88 (AAC(3)-I); [15]): 50 µg/mL (≈ 150 µM) | MIC [9, 16]: > 100 µg/mL | MIC (E. coli R176 (AAC(3)-II)): 3.13 µg/mL (≈ 9.42 µM) | MIC [10, 16]: 100 µg/mL (≈ 301 µM) | MIC ([11]; P. inconstans GN1554 (AAC(2'))): 1.56 µg/mL (≈ 4.69 µM)

CNCC1CCC(N)C(OC2C(N)CC(OC)C(NC)C2O)O1 (stereo not drawn) [KA-7038VI, reference compound]
MIC (S. aureus 209P JC-1; Staphylococcus aureus, 209P, read-out: MIC): 25 µg/mL (≈ 75.2 µM) | MIC (S. faecalis Imanari; Enterococcus faecalis, read-out: MIC): 100 µg/mL (≈ 301 µM) | MIC (B. subtilis ATCC 6633; [12]): 6.25 µg/mL (≈ 18.8 µM) | MIC (E. coli NIHJ JC-2; Escherichia coli, NIHJJC2, E. coli NIHJ JC-2, read-out: MIC): 50 µg/mL (≈ 150 µM) | MIC (K. pneumoniae PCI 602; Klebsiella pneumoniae, PCI602, K. pneumoniae PCI 602, read-out: MIC): 100 µg/mL (≈ 301 µM) | MIC (E. cloacae IID 977; Enterobacter cloacae, IID977, E. cloacae IID 977, read-out: MIC): > 100 µg/mL | MIC (S. marcescens NHL; Serratia marcescens, read-out: MIC): > 100 µg/mL | MIC (P. inconstans 93; Providencia alcalifaciens, 93, P. inconstans 93, read-out: MIC): > 100 µg/mL | MIC (P. vulgaris IID 874; Proteus vulgaris, IID874, P. vulgaris IID 874, read-out: MIC): 50 µg/mL (≈ 150 µM) | MIC (P. aeruginosa NCTC 10490; Pseudomonas aeruginosa, NCTC10490, P. aeruginosa NCTC 10490, read-out: MIC): > 100 µg/mL | MIC (P. cepacia 11D 1340; [13]): > 100 µg/mL | MIC (P. maltophilia IID 1275; Stenotrophomonas maltophilia, IID1275, P. maltophilia IID 1275, read-out: MIC): > 100 µg/mL | MIC (P. putida IID 5121; Pseudomonas putida, IID5121, P. putida IID 5121, read-out: MIC): > 100 µg/mL | MIC (E. coli ML 1410; Escherichia coli, ML1410, E. coli ML 1410, read-out: MIC): > 100 µg/mL | MIC ([1]; Escherichia coli): > 100 µg/mL | MIC ([2]; Pseudomonas aeruginosa): 100 µg/mL (≈ 301 µM) | MIC ([3]; Escherichia coli): > 100 µg/mL | MIC ([4]; read-out: MIC): > 100 µg/mL | MIC ([5]; Escherichia coli): 100 µg/mL (≈ 301 µM) | MIC ([6]; Klebsiella pneumoniae, read-out: MIC): > 100 µg/mL | MIC ([7]; Escherichia coli): > 100 µg/mL | MIC [8, 14]: > 100 µg/mL | MIC (E. coli JR 88 (AAC(3)-I); [15]): > 100 µg/mL | MIC [9, 16]: > 100 µg/mL | MIC (E. coli R176 (AAC(3)-II); [15]): > 100 µg/mL | MIC [10, 16]: > 100 µg/mL | MIC ([11]; Providencia alcalifaciens, GN1554, P. inconstans GN1554 (AAC(2')), read-out: MIC): > 100 µg/mL
